Data on 26 compounds can be found in patent US20240239752A1, “BICYCLIC HETEROAROMATIC INHIBITORS OF KLK5” (BioCryst Pharmaceuticals, Inc., priority 2021, published 2024).

By IC50 is commonly meant the concentration that inhibits the measured activity by half.

The test addresses T1, recombinant human KLK5 (Homo sapiens, UniProt Q9Y337).
T1 construct: purchased Novoprotein or R&D Systems C415 or 1108-SE
T1 sequence (Q9Y337 23-293): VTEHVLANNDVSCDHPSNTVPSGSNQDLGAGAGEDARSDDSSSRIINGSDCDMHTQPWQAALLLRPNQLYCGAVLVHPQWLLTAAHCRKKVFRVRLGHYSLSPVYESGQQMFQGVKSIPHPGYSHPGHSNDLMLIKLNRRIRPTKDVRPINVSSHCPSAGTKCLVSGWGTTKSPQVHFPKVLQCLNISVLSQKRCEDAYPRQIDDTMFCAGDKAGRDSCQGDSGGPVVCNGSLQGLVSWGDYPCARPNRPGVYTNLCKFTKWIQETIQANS
Kind of test: Kallikrein (KLK) 5 enzymatic assay (Boc-VPR-AMC fluorogenic substrate). Type of test: biochemical. The settings on record: recombinant human KLK5 0.1 μg/well, Boc-VPR-AMC 100 μM, pH 7.5, room temperature, 1% DMSO; tested a minimum of three times. In a few lines: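 Fluorogenic rate assay at pH 7.5 (0.1 M NaH2PO4, 1% DMSO, room temperature), run at least three times per compound. Compound was premixed with 0.1 μg/well recombinant human KLK5 before adding 100 μM Boc-VPR-AMC; AMC release was read at ex 380/em 460 nm, and IC50 derived from inhibition of rate vs DMSO control.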

Consider `CC(C)COC(=O)N1CC[C@@H](n2nc(COc3ccccc3CC(=O)O)c3cc(-c4ccc5ccnc(N)c5c4)ccc32)C1` [Compound 364c, (R)-2-(2-((5-(1-aminoisoquinolin-7-yl)-1-(1-(isobutoxycarbonyl)pyrrolidin-3-yl)-1H-indazol-3-yl)methoxy)phenyl)acetic acid], for which the concentration for half-maximal inhibition (IC50) was less than 1000 nM.
`CC(C)COC(=O)N1CC[C@@H](n2nc(COc3ccccc3CC(=O)O)c3cc(-c4cccc5c(N)nccc45)ccc32)C1` [Compound 365b, (R)-2-(2-((5-(1-aminoisoquinolin-5-yl)-1-(1-(isobutoxycarbonyl)pyrrolidin-3-yl)-1H-indazol-3-yl)methoxy)phenyl)acetic acid]: the IC50 is less than 1000 nM.
With `Cc1cccc(OC2CC3(CCCC3)c3ccc(-c4cccc5c(N)nccc45)cc32)c1CC(=O)O` (centres unmarked) [Compound 366c, 2-(2-((5′-(1-aminoisoquinolin-5-yl)-2′,3′-dihydrospiro[cyclopentane-1,1′-inden]-3′-yl)oxy)-6-methylphenyl)acetic acid], the concentration for half-maximal inhibition (IC50) was less than 1000 nM.
With `Cc1cccc(OC2CC3(CCCC3)c3ccc(-c4ccc5ccnc(N)c5c4)cc32)c1CC(=O)O` (centres unmarked) [Compound 367b, 2-(2-((5′-(1-aminoisoquinolin-7-yl)-2′,3′-dihydrospiro[cyclopentane-1,1′-inden]-3′-yl)oxy)-6-methylphenyl)acetic acid] the figure was less than 1000 nM; with `COC(=O)N1CCC2(CC1)CC(Oc1ccccc1CC(=O)O)c1cc(-c3ccc4ccnc(N)c4c3)ccc12` (centres unmarked) [Compound 370c, 2-(2-((5-(1-aminoisoquinolin-7-yl)-1′-(methoxycarbonyl)-2,3-dihydrospiro[indene-1,4′-piperidin]-3-yl)oxy)phenyl)acetic acid], less than 1000 nM; with `COC(=O)N1CCC2(CC1)CC(Oc1ccccc1CC(=O)O)c1cc(-c3cccc4c(N)nccc34)ccc12` (centres unmarked) [Compound 371b, 2-(2-((5-(1-aminoisoquinolin-5-yl)-1′-(methoxycarbonyl)-2,3-dihydrospiro[indene-1,4′-piperidin]-3-yl)oxy)phenyl)acetic acid], less than 1000 nM.
The result for `CCOC(=O)N1CCC2(CC1)CC(Oc1ccccc1CC(=O)O)c1cc(-c3cccc4c(N)nccc34)ccc12` (centres unmarked) [Compound 372b, 2-(2-((5-(1-aminoisoquinolin-5-yl)-1′-(ethoxycarbonyl)-2,3-dihydrospiro[indene-1,4′-piperidin]-3-yl)oxy)phenyl)acetic acid] reads less than 1000 nM.
In the case of `CC(C)OC(=O)N1CCC2(CC1)CC(Oc1ccccc1CC(=O)O)c1cc(-c3ccc4ccnc(N)c4c3)ccc12` (centres unmarked) [Compound 374c, 2-(2-((5-(1-aminoisoquinolin-7-yl)-1′-(isopropoxycarbonyl)-2,3-dihydrospiro[indene-1,4′-piperidin]-3-yl)oxy)phenyl)acetic acid], the IC50 is less than 1000 nM.
The result for `CC(C)OC(=O)N1CCC2(CC1)CC(Oc1ccccc1CC(=O)O)c1cc(-c3cccc4c(N)nccc34)ccc12` (centres unmarked) [Compound 375b, 2-(2-((5-(1-aminoisoquinolin-5-yl)-1′-(isopropoxycarbonyl)-2,3-dihydrospiro[indene-1,4′-piperidin]-3-yl)oxy)phenyl)acetic acid] reads less than 1000 nM.
With `Nc1nccc2c(-c3ccc4c(c3)C(Oc3ccccc3CC(=O)O)CC43CCCCC3)cccc12` (centres unmarked) [Compound 376f, 2-(2-((5′-(1-aminoisoquinolin-5-yl)-2′,3′-dihydrospiro[cyclohexane-1,1′-inden]-3′-yl)oxy)phenyl)acetic acid] the figure was less than 1000 nM; with `Cc1cccc(OC2CC3(CCCCC3)c3ccc(-c4cccc5c(N)nccc45)cc32)c1CC(=O)O` (centres unmarked) [Compound 377c, 2-(2-((5′-(1-aminoisoquinolin-5-yl)-2′,3′-dihydrospiro[cyclohexane-1,1′-inden]-3′-yl)oxy)-6-methylphenyl)acetic acid], less than 1000 nM; with `Cc1cccc(OC2CC3(CCCCC3)c3ccc(-c4ccc5ccnc(N)c5c4)cc32)c1CC(=O)O` (centres unmarked) [Compound 378b, 2-(2-((5′-(1-aminoisoquinolin-7-yl)-2′,3′-dihydrospiro[cyclohexane-1,1′-inden]-3′-yl)oxy)-6-methylphenyl)acetic acid], less than 1000 nM.
The result for `COC(=O)N1CCC2(CC1)CC(Oc1cccc(C)c1CC(=O)O)c1cc(-c3ccc4ccnc(N)c4c3)ccc12` (centres unmarked) [Compound 381e, 2-(2-((5-(1-aminoisoquinolin-7-yl)-1′-(methoxycarbonyl)-2,3-dihydrospiro[indene-1,4′-piperidin]-3-yl)oxy)-6-methylphenyl)acetic acid] reads less than 1000 nM; that for `COC(=O)N1CCC2(CC1)CC(Oc1cccc(C)c1CC(=O)O)c1cc(-c3cccc4c(N)nccc34)ccc12` (centres unmarked) [Compound 382b, 2-(2-((5-(1-aminoisoquinolin-5-yl)-1′-(methoxycarbonyl)-2,3-dihydrospiro[indene-1,4′-piperidin]-3-yl)oxy)-6-methylphenyl)acetic acid], less than 1000 nM.
With `Cc1cccc(OC2CC3(CCN(C(=O)OC(C)C)CC3)c3ccc(-c4ccc5ccnc(N)c5c4)cc32)c1CC(=O)O` (centres unmarked) [Compound 383c, 2-(2-((5-(1-aminoisoquinolin-7-yl)-1′-(isopropoxycarbonyl)-2,3-dihydrospiro[indene-1,4′-piperidin]-3-yl)oxy)-6-methylphenyl)acetic acid], the IC50 is less than 1000 nM.
The result for `Cc1cccc(OC2CC3(CCN(C(=O)OC(C)C)CC3)c3ccc(-c4cccc5c(N)nccc45)cc32)c1CC(=O)O` (centres unmarked) [Compound 384b, 2-(2-((5-(1-aminoisoquinolin-5-yl)-1′-(isopropoxycarbonyl)-2,3-dihydrospiro[indene-1,4′-piperidin]-3-yl)oxy)-6-methylphenyl)acetic acid] reads less than 1000 nM; that for `CCC(=O)N1CCC2(CC1)CC(Oc1ccccc1CC(=O)O)c1cc(-c3cccc4c(N)nccc34)ccc12` (centres unmarked) [Compound 385c, 2-(2-((5-(1-aminoisoquinolin-5-yl)-1′-propionyl-2,3-dihydrospiro[indene-1,4′-piperidin]-3-yl)oxy)phenyl)acetic acid], less than 1000 nM; that for `CCC(=O)N1CCC2(CC1)CC(Oc1ccccc1CC(=O)O)c1cc(-c3ccc4ccnc(N)c4c3)ccc12` (centres unmarked) [Compound 386b, 2-(2-((5-(1-aminoisoquinolin-7-yl)-1′-propionyl-2,3-dihydrospiro[indene-1,4′-piperidin]-3-yl)oxy)phenyl)acetic acid], less than 1000 nM.
Regarding `CCC(=O)N1CCC2(CC1)CC(Oc1cccc(C)c1CC(=O)O)c1cc(-c3cccc4c(N)nccc34)ccc12` (centres unmarked) [Compound 387c, 2-(2-((5-(1-aminoisoquinolin-5-yl)-1′-propionyl-2,3-dihydrospiro[indene-1,4′-piperidin]-3-yl)oxy)-6-methylphenyl)acetic acid], the IC50 was less than 1000 nM.
With `CCC(=O)N1CCC2(CC1)CC(Oc1cccc(C)c1CC(=O)O)c1cc(-c3ccc4ccnc(N)c4c3)ccc12` (centres unmarked) [Compound 388b, 2-(2-((5-(1-aminoisoquinolin-7-yl)-1′-propionyl-2,3-dihydrospiro[indene-1,4′-piperidin]-3-yl)oxy)-6-methylphenyl)acetic acid] the figure was less than 1000 nM.
`CC(C)COC(=O)N1CCC2(CC1)CC(Oc1ccccc1CC(=O)O)c1cc(-c3ccc4ccnc(N)c4c3)ccc12` (centres unmarked) [Compound 389c, 2-(2-((5-(1-aminoisoquinolin-7-yl)-1′-(isobutoxycarbonyl)-2,3-dihydrospiro[indene-1,4′-piperidin]-3-yl)oxy)phenyl)acetic acid]: the half-maximal inhibitory concentration (IC50) was less than 1000 nM.
The result for `CC(C)COC(=O)N1CCC2(CC1)CC(Oc1ccccc1CC(=O)O)c1cc(-c3cccc4c(N)nccc34)ccc12` (centres unmarked) [Compound 390b, 2-(2-((5-(1-aminoisoquinolin-5-yl)-1′-(isobutoxycarbonyl)-2,3-dihydrospiro[indene-1,4′-piperidin]-3-yl)oxy)phenyl)acetic acid] reads less than 1000 nM.
Consider `Nc1nccc2ccc(-c3ccc4c(c3)C(Oc3ccccc3CC(=O)O)CC43CCCCC3)cc12` (centres unmarked) [Compound 391b, 2-(2-((5′-(1-aminoisoquinolin-7-yl)-2′,3′-dihydrospiro[cyclohexane-1,1′-inden]-3′-yl)oxy)phenyl)acetic acid], for which the concentration for half-maximal inhibition (IC50) was less than 1000 nM.
As to `CC(C)(C)OC(=O)N1CCC2(CC1)C[C@H](Oc1ccccc1CC(=O)O)c1cc(-c3cccc4c(N)nccc34)ccc12` [Compound 392f, (S)-2-(2-((5-(1-aminoisoquinolin-5-yl)-1′-(tert-butoxycarbonyl)-2,3-dihydrospiro[indene-1,4′-piperidin]-3-yl)oxy)phenyl)acetic acid], the IC50 is less than 1000 nM.
With `CC(C)(C)OC(=O)N1CCC2(CC1)C[C@H](Oc1ccccc1CC(=O)O)c1cc(-c3ccc4ccnc(N)c4c3)ccc12` [Compound 393b, (S)-2-(2-((5-(1-aminoisoquinolin-7-yl)-1′-(tert-butoxycarbonyl)-2,3-dihydrospiro[indene-1,4′-piperidin]-3-yl)oxy)phenyl)acetic acid] the figure was less than 1000 nM; with `CC(C)(C)OC(=O)N1CCC2(CC1)C[C@@H](Oc1ccccc1CC(=O)O)c1cc(-c3cccc4c(N)nccc34)ccc12` [Compound 394e, (R)-2-(2-((5-(1-aminoisoquinolin-5-yl)-1′-(tert-butoxycarbonyl)-2,3-dihydrospiro[indene-1,4′-piperidin]-3-yl)oxy)phenyl)acetic acid], less than 1000 nM.
